From article PMC5681660, “Reduced hepatitis B and D viral entry using clinically applied drugs as novel inhibitors of the bile acid transporter NTCP” (Scientific Reports, 2017)
Entries after “also recorded” stand apart in the source; their conditions may differ. Like-named read-outs stand apart in the source and are kept apart here.

Experiments:
[1] = WST-1 cytotoxicity, wildtype U2OS cells; conditions: human; for viability at 2 h, 1 µM / viability at 2 h, 10 µM / viability at 2 h, 100 µM: wildtype U2OS cells
in vitro = conditions: human
human NTCP [2] = target: T1, human NTCP (Homo sapiens, UniProt Q14973); assay: Screening taurocholate uptake assay (96-well, [14C]taurocholate, 10 µM drug); conditions: for Ranking score: ranking over the functional and the binding screening assay; for B-score functional assay: screening taurocholate uptake, 10 µM drug
T1 sequence (Q14973 1-349): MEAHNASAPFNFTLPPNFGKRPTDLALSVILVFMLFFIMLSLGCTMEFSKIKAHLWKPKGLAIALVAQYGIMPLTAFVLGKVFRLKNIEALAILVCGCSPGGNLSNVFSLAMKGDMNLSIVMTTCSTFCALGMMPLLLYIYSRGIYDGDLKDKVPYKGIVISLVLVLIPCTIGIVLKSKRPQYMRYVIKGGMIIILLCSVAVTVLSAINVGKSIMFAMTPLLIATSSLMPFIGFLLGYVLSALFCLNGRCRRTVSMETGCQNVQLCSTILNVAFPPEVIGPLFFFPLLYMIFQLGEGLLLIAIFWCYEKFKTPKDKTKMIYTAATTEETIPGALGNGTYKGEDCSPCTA

HBV = conditions: for HBV infection in HepaRG cells (in words): HBeAg, HBsAg, HBcAg, concentration-dependent
HDV = HDV infection of HepaRG cells (HDAg immunofluorescence); type: cell-based, hepatitis delta virus; conditions: HDAg positive cells, day 5; concentration-dependent
U2OS cells = assay: WST-1 cytotoxicity, wildtype U2OS cells; conditions: U2OS cells, 2 hours
human NTCP [3] = target: T1, human NTCP; assay: Myrcludex B-FITC binding by confocal microscopy in U2OS-HA-hNTCP cells; parameters: HA; expressed in transfected cells; conditions: for Myrcludex B-FITC fluorescence / binding to U2OS-HA-hNTCP cells (in words): co-administration with increasing amounts of drug; for ≥50% loss of Myrcludex B binding to hNTCP (concentration): confocal microscopy, 0.2 µM Myrcludex B-FITC, drug 1, 10, 100 µM, concentration at which binding inhibited minimally 50%
Procedure: After 24 hours, medium was aspirated and cells were washed once with 300 µl Leibovitz’s L-15 Medium (Invitrogen). A 30 minute incubation period followed in which all cells were incubated with 0.2 µM Myrcludex B-FITC with or without drug (1, 10, 100 µM) and Hoechst (1/1000) in 300 µL Leibovitz’s L-15 Medium. Cells were washed twice with Leibovitz’s L-15 Medium and subsequently 400 µL Leibovitz’s L-15 Medium was added. Live cell fluorescent imaging was performed using a Leica SP8X-SMD confocal microscope with fully enclosed incubation at 37 °C. A 63x oil objective was used and images were captured while the cells were consecutively excited at 490 nm (FITC) 350 nm (Hoechst). ImageJ software (National Insititutes of Health, Bethesda, MD) was employed for data analysis.

human NTCP [4] = target: T1, human NTCP; assay: Taurocholate uptake inhibition studies in U2OS-HA-hNTCP cells; type: cell-based; parameters: HA; expressed in transfected cells; conditions: for IC50: U2OS-HA-hNTCP cells, concentrations 1 nM to 10 mM, read-out: IC50 for hNTCP-mediated TC uptake; for Taurocholate uptake into U2OS-HA-hNTCP cells (in words): increasing drug concentrations
Procedure: (§1) For MDCK or MDCK-hASBT cells 70.000 cells/well were plated in 24-well plates, followed by 24 hours 10 mM sodium butyrate (Sigma-Aldrich) stimulation the next day. Cells were used in the inhibition studies 24 hours (U2OS cell lines) or 48 hours (MDCK cell lines) later. Inhibition studies with mNTCP transiently transfected cells were conducted 48–72 hours after transfection.
(§2) Medium was aspirated from the wells and cells were washed once with 250 µL uptake buffer. Subsequently, cells were pre-incubated with drug in 150 µL uptake buffer for 10 minutes at 37 °C. Taurocholate uptake was initiated by addition of 100 µL uptake buffer containing taurocholate (final concentration 10 µM TC spiked with tritium-labeled TC) and cells were incubated for 2 minutes at 37 °C. Subsequently, cells were washed 4 times with ice-cold PBS and lysed with 0.05% SDS in water. Radioactivity was measured by liquid scintillation counting.

U2OS-HA-hNTCP cells = conditions: 2 hours
mouse NTCP = target: T2, mouse NTCP (Mus musculus, UniProt O08705); assay: Taurocholate uptake in U2OS cells transiently transfected with mouse NTCP; type: cell-based; conditions: at the calculated IC50 value for hNTCP
T2 construct: expressed in transfected cells; host or cells: U2OS (transient transfection, PEI)
T2 sequence (O08705 1-362): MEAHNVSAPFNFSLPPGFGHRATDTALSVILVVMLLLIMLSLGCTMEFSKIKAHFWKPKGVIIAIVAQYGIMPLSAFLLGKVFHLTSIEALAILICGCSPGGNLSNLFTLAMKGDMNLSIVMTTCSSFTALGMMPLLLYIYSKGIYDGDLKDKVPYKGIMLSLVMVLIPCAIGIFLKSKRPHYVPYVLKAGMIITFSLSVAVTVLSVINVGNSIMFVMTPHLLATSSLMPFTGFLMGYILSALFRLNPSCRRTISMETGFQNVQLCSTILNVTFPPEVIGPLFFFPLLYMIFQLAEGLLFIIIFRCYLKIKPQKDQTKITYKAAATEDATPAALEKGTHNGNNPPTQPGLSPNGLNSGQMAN
Procedure: U2OS and MDCK cells were grown in Dulbecco’s modified Eagle’s medium (DMEM, Sigma-Aldrich), supplemented with 10% FCS (Gibco), 1% L-glutamine (Lonza), and 1% penicillin/streptomycin (Lonza). […] Transient transfection of U2OS cells with mouse NTCP (mNTCP) was done with PEI reagent (Brunschwig, Basel, Switzerland). Shortly, U2OS cells were seeded one day prior to transfection in 24-well plates. On the day of transfection, 0.5 µg DNA was mixed with 100 µl unsupplemented DMEM and 3 µg/µl PEI. After 10–15 minute incubation at RT, 20 µl of the transfection mix was added to each 24-well. Transfected cells were used in further experiments 48–72 hours later. Cell lines were passaged twice a week at a confluence of 80%, and incubated in a humidified atmosphere of 37 °C + 5% CO2.
as §1, §2

| SMILES | viability at 2 h, 1 µM [1] | viability at 2 h, 10 µM [1] | viability at 2 h, 100 µM [1] | viability at 2 h, 1 µM (in vitro; U2OS-HA-hNTCP cells) | viability at 2 h, 10 µM (in vitro; U2OS-HA-hNTCP cells) | viability at 2 h, 100 µM (in vitro; U2OS-HA-hNTCP cells) | Ranking score (human NTCP [2]) | B-score functional assay (human NTCP [2]) | Myrcludex B-FITC fluorescence / binding to U2OS-HA-hNTCP cells (in words) (human NTCP [3]) | ≥50% loss of Myrcludex B binding to hNTCP (concentration) (human NTCP [3]) | IC50 (human NTCP [4]) | Taurocholate uptake into U2OS-HA-hNTCP cells (in words) (human NTCP [4]) | further results |
| --- | --- | --- | --- | --- | --- | --- | --- | --- | --- | --- | --- | --- | --- |
| CC(C)c1ccc2oc3nc(N)c(C(=O)O)cc3c(=O)c2c1 [Amlexanox] | 88.2 ± 9.6% | 94.8 ± 13.8% | 77.3 ± 5.6% | 99.6 ± 6.1% | 102 ± 18.9% | 92.7 ± 17.8% |  |  |  |  |  |  |  |
| CCCCC1=NC2(CCCC2)C(=O)N1Cc1ccc(-c2ccccc2-c2nnn[nH]2)cc1 [irbesartan, reference compound] |  |  |  |  |  |  | 197.737 | -3.733 |  |  |  |  | NTCP inhibition in the screen (in words) (human NTCP [2]; 10 µM, both screening assays): confirmed NTCP inhibition; position among the hits of the screen (combined ranking of both screening assays) (human NTCP [2]; 1280 drugs at 10 µM, TC uptake and Myrcludex B binding screens combined): ≤ 150; HBV infection in HepaRG cells (in words) (HBV): reduce; concentration effective in reducing HBeAg and HBsAg production (HBV; HepaRG cells infected with HBV, supernatant day 7 to 10): 17 µM; HDV infection in HepaRG cells (in words) (HDV): reduce |
| CS(=O)(=O)O.Cc1c(O)cccc1C(=O)N[C@@H](CSc1ccccc1)[C@H](O)CN1C[C@H]2CCCC[C@H]2C[C@H]1C(=O)NC(C)(C)C [Nelfinavir Mesylate Hydrate] |  |  |  |  |  |  |  |  | reduced Myrcludex B-FITC fluorescence | ≥100 µM | 134 µM | reduced in a dose-dependent fashion | cell viability by WST-1 (U2OS cells; 1 µM): 105.9 ± 8.4%; cell viability by WST-1 (U2OS cells; 10 µM): 102 ± 10.7%; cell viability by WST-1 (U2OS cells; 100 µM): 95.1 ± 5.6%; cell viability by WST-1 (U2OS-HA-hNTCP cells; 1 µM): 105.3 ± 7.1%; cell viability by WST-1 (U2OS-HA-hNTCP cells; 10 µM): 99.8 ± 5.2%; cell viability by WST-1 (U2OS-HA-hNTCP cells; 100 µM): 104.8 ± 4.5% |
| O=C(O)Cc1cc(I)c(Oc2ccc(O)c(I)c2)c(I)c1 [TRIAC, 3,3′,5-Triiodothyroacetic acid] | 100 ± 7.5% |  | 81.6 ± 3.8% |  |  |  |  |  |  |  |  |  | HBV infection in HepaRG cells (in words) (HBV): reduced HBV/HDV infection; also recorded: reduce; number of HBcAg positive stained cells (HBV; HepaRG cells, day 10 post HBV infection, 50 µM): mild reduction; viability at 2 h, 1 µM (in vitro): 109 ± 4.1%; viability at 2 h, 10 µM (in vitro): 105 ± 2.1%; viability at 2 h, 100 µM (in vitro): 86.3 ± 4.9%; HDV infection in HepaRG cells (in words) (HDV): reduced HBV/HDV infection; also recorded: reduce |
| O=C(O)c1ccccc1Nc1cccc(C(F)(F)F)c1 [Flufenamic Acid, Flufenamic acid] | 109 ± 9.1% | 108 ± 8.5% | 104 ± 3.6% | 125 ± 15.2% | 118 ± 9.6% | 107 ± 9.6% | 48.7852 | -5.588 | reduced Myrcludex B-FITC fluorescence | ≥100 µM | 10 µM | reduced in a dose-dependent fashion | inhibition of mouse Ntcp-mediated taurocholate uptake compared with human NTCP (mouse NTCP): more capable of inhibiting mouse Ntcp; also recorded: more potent in inhibiting mouse NTCP; ≥50% loss of Myrcludex B binding to hNTCP (concentration) (human NTCP [3]; listed as Flufenamic acid): ≤ 100 µM |
| Cc1cc(-n2c(=O)[nH]c(=O)n(C)c2=O)ccc1Oc1ccc(SC(F)(F)F)cc1 [Toltrazuril] | 115 ± 6.1% | 109 ± 11.8% | 101 ± 3.6% | 100 ± 9.9% | 109 ± 12.9% | 105 ± 11.4% | 35.4965 | -3.14 | reduced Myrcludex B-FITC fluorescence | ≥10 µM | 84.1 µM | reduced in a dose-dependent fashion |  |
| Cc1c(Cl)cccc1Nc1ccccc1C(=O)O [Tolfenamic Acid, Tolfenamic acid] |  |  |  | 116 ± 10.3% | 118 ± 13% | 107 ± 12.4% | 28.5657 | -4.169 | reduced Myrcludex B-FITC fluorescence | ≥100 µM | 12.5 µM | reduced in a dose-dependent fashion | inhibition of mouse Ntcp-mediated taurocholate uptake compared with human NTCP (mouse NTCP): inhibited similarly as human NTCP; viability at 1 µM [1]: 94.7 ± 6.3%; viability at 10 µM [1]: 105 ± 11.7%; viability at 100 µM [1]: 82.1 ± 4.8%; ≥50% loss of Myrcludex B binding to hNTCP (concentration) (human NTCP [3]; listed as tolfenamic acid): ≤ 100 µM |
| Nc1c2c(nc3ccccc13)CCCC2O.O=C(O)/C=C\C(=O)O (stereo not shown) [Hydroxytacrine Maleate] |  |  |  |  |  |  |  |  | not | Not confirmed | 4200 µM | not | cell viability by WST-1 (U2OS cells; 1 µM): 107.6 ± 15.7%; cell viability by WST-1 (U2OS cells; 10 µM): 100.7 ± 7.1%; cell viability by WST-1 (U2OS cells; 100 µM): 95.8 ± 3.9%; outcome of follow-up screening of hits found in only one of the two screens (human NTCP [4]; follow-up of TC uptake and Myrcludex B binding): false positives; cell viability by WST-1 (U2OS-HA-hNTCP cells; 1 µM): 105.6 ± 1.2%; cell viability by WST-1 (U2OS-HA-hNTCP cells; 10 µM): 102 ± 8.3%; cell viability by WST-1 (U2OS-HA-hNTCP cells; 100 µM): 96.7 ± 5.9% |
